Calls of active or inactive are those of the source.
Legend:
[1] = biological target: T1, DNA repair protein RAD52 homolog (Homo sapiens, UniProt P43351); assay type: functional, biochemical
T1 sequence (P43351 whole entry): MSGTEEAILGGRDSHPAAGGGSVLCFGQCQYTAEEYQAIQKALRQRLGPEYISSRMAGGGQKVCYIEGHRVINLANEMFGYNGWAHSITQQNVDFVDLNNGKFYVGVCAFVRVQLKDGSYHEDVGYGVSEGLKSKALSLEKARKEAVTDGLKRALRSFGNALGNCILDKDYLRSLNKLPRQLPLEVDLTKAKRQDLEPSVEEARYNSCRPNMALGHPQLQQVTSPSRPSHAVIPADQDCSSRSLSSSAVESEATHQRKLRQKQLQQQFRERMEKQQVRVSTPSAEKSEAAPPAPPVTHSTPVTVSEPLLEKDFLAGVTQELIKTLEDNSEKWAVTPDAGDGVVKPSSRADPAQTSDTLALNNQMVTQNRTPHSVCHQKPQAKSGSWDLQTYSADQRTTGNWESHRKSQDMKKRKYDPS

[2] = inhibitors of SNCA 5'UTR-driven reporter translation, confirmation, H4 neuroglioma cells, luminescence (AID 1988); assay type: functional, cell-based
[3] = inhibitors of firefly luciferase expression or activity, dose response, H4 neuroglioma cells, luminescence (AID 1990); assay type: functional, cell-based
[4] = Luminescence Cell-Based Dose Response HTS to Identify Inhibitors of 5'UTR Stem-Loop Driven Prion Protein mRNA Translation in H4 Neuroglioblastoma Cells. [Related pubchem assays: 1827 (Project Summary), 1813 (Primary HTS)]; assay type: functional
[5] = control 3'UTR Renilla luciferase suppression, dose response, counter-screen for Shn3 inhibitor project, cell-based, Clone20-Shn3RL, cherry-picked (AID 624133); assay type: functional
[6] = HepG2 cell cytotoxicity, dose response, cytotoxicity control for Shn3 inhibitor project, CellTiter-Glo, cherry-picked (AID 624134); assay type: functional, cell-based
[7] = Shn3 3'UTR reporter inhibitors, dose response, cell-based, Clone20 osteoblasts, firefly luciferase, cherry-picked (AID 624132); assay type: functional;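 note: firefly luciferase luminescence from reporter carrying the Shn3 3'UTR in osteoblasts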
INS1 = experiment: beta cell apoptosis inhibitors, cytokine rescue, dose response, luminescence, retest (AID 449756); assay type: functional, cell-based; conditions: Rattus norvegicus;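 note: cell death triggered by IL-1 beta plus TNF-alpha plus IFN-gamma mixture; protective hits raise ATP signal compared with cytokine alone wells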
[8] = microbe, parasite or virus in culture; assay type: functional; conditions: Mycobacterium tuberculosis
H9c2 = experiment: cells; assay type: functional, cell-based; conditions: Rattus norvegicus, H9c2, Myocardium;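 note: confirmatory concentration-response retest of ultra-high-throughput screening hits for modulation of myocardial damage; cell death induced by hydrogen peroxide oxidative stress; compound pretreatment for 60 min then peroxide exposure for 2 h; potency is for protecting the cells against peroxide damage rather than for killing them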
Vero = experiment: cells; assay type: functional; conditions: Chlorocebus sabaeus
[9] = test system: Streptococcus sp. 'group A'; experiment: growth inhibition of control SK(-) GAS strain, dose response, counter-screen for streptokinase expression inhibitor project, luminescence, kanamycin, BacTiterGlo, confirmation (AID 1900); assay type: functional, organism-based
Streptococcus = experiment: Group A Streptococcus viability loss, dose response, counter-screen for streptokinase expression inhibitor project, luminescence, BacTiterGlo (AID 1915); assay type: functional, organism-based;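 note: potency for reduction of bacterial viability or growth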
Streptokinase A = biological target: T2, Streptokinase A (Streptococcus pyogenes serotype M1, UniProt P10520); experiment: S. pyogenes streptokinase expression inhibitors, potency, dose response, plasminogen activation absorbance, OD405 (AID 1914); assay type: functional, Streptococcus pyogenes M1 GAS;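 note: secreted streptokinase activity via plasminogen activation per viability signal from cell pellet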
T2 sequence (P10520 whole entry): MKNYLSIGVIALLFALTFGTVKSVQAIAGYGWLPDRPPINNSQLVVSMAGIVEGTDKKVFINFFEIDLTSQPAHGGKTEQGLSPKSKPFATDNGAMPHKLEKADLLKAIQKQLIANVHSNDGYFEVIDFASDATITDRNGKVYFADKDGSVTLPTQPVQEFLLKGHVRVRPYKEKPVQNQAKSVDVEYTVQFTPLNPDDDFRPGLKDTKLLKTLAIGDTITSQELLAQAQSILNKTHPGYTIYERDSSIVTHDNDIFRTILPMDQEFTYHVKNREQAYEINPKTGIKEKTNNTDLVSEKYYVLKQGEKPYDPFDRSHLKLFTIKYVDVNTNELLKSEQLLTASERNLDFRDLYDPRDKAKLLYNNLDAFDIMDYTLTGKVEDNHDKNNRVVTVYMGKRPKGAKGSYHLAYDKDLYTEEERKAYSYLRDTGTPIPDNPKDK

[10] = biological target: T3, RNA-binding protein pos-1 (Caenorhabditis elegans, UniProt G5EF15); experiment: inhibitors of POS-1/mex-3 RNA binding, dose response, biochemical, fluorescence polarization (AID 1964);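 note: purified POS-1 fused to maltose binding protein made in E. coli; potency of compounds blocking POS-1 binding to fluorescent RNA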
T3 sequence (G5EF15 whole entry): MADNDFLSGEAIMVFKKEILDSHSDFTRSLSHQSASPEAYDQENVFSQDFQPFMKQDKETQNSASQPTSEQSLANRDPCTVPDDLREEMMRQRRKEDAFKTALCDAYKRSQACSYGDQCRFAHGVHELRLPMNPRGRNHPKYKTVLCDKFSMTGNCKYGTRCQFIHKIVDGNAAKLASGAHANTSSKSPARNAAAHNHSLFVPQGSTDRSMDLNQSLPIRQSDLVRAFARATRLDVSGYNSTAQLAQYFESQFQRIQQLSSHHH

[11] = biological target: T4, Zinc finger protein mex-5 (Caenorhabditis elegans, UniProt Q9XUB2); experiment: MEX-5/TCR-2 RNA interaction inhibitors, dose response, biochemical, C. elegans, fluorescence polarization (AID 1960)
T4 sequence (Q9XUB2 whole entry): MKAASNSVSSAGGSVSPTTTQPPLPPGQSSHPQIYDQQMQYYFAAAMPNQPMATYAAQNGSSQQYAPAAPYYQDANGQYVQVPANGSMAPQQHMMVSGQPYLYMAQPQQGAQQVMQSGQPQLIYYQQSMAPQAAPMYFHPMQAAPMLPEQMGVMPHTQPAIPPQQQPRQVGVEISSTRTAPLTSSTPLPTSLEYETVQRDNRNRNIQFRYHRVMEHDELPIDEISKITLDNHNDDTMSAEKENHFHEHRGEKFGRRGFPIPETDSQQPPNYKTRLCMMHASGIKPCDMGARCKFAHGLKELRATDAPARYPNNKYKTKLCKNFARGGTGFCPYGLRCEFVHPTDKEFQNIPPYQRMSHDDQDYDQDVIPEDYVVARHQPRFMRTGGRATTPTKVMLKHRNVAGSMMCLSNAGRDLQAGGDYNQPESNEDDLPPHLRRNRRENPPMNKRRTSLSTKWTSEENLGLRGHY

**Q.** For `Cc1ccc2c(c1)c1c3n2CCN(CC(O)CNC(C)C)C3CCC1` (centres undefined), which AC50 [1] is on record?
**A.** The AC50 was 15.8 µM (active).

**Q.** For `COc1ccc2nc(NCCN=C(S)NCCCN3CCOCC3)c(C#N)cc2c1`, which AC50 [1] is on record?
**A.** The AC50 was 9.87 µM (active).

**Q.** Which results are given for `Cc1ccc(NC(CNS(=O)(=O)c2ccc(Cl)cc2)c2ccccc2)cc1` (centres undefined)?
**A.** EC50 [2]: 10.3 µM (active); EC50 [3]: > 120 µM (not active); EC50 [4]: 45.4 µM (active)

**Q.** Which AC50 [5] does the source give for `Cc1c(C(=O)Nc2ccc(F)c(F)c2)oc2ccc(S(=O)(=O)N3CCCCC3)cc12` here?
**A.** The AC50 was 28 µM (active).

**Q.** What about the AC50 [6] of the same compound?
**A.** The AC50 was > 70 µM (inactive).

**Q.** What about the AC50 [7] of the same compound?
**A.** Its AC50 is 7.05 µM (active).

**Q.** For `CCOc1ccc(NC(=S)N2CCC(NC(=O)c3ccccc3C)CC2)cc1`, which EC50 [2] is on record?
**A.** The EC50 was > 120 µM (not active).

**Q.** And the EC50 [3]?
**A.** Its EC50 is > 120 µM (not active).

**Q.** And the EC50 [4]?
**A.** Its EC50 is > 120 µM (not active).

**Q.** What does the source list for `COc1ccccc1-c1nnc(NC(=O)c2ccc(S(=O)(=O)N(C)C)cc2)o1`?
**A.** EC50 [2]: > 120 µM (not active); EC50 [3]: > 120 µM (not active); EC50 [4]: > 120 µM (not active)

**Q.** Which results are given for `CCOc1ccc(S(=O)(=O)N(C)c2ccc(OCC(=O)Nc3nc4ccccc4s3)cc2)cc1`?
**A.** AC50 [5]: 4.06 µM (active); AC50 [6]: 34.6 µM (active); AC50 [7]: 2.82 µM (active); AC50 (INS1): 7.73 µM (active)

**Q.** For `O=C(Nc1ccc(N2CCOCC2)c(Cl)c1)c1c(F)c(F)c(F)c(F)c1F`, which CC50 [8] is on record?
**A.** The CC50 was > 40 µM (active).

**Q.** For `CC(C)(C)c1ccc(OCC(=O)Nc2ccc3c4c(cccc24)C(=O)NC3=O)cc1`, which EC50 [2] is on record?
**A.** Its EC50 is > 120 µM (not active).

**Q.** What about the EC50 [3] of the same compound?
**A.** Its EC50 is > 120 µM (not active).

**Q.** And the IC50 (H9c2)?
**A.** The IC50 was 20.9 µM (active).

**Q.** And the EC50 [4]?
**A.** Its EC50 is 10.8 µM (active).

**Q.** With `C=CCn1c(SCc2ccc(C#N)cc2)nnc1-c1cccc(OC)c1` as the compound, how does the EC50 [2] read?
**A.** Its EC50 is > 120 µM (not active).

**Q.** What about the EC50 [3] of the same compound?
**A.** The EC50 was 18.6 µM (active).

**Q.** What about the EC50 [4] of the same compound?
**A.** The EC50 was 48.7 µM (active).

**Q.** For `CCN1C(=O)/C(=C/c2c[nH]nc2-c2ccccc2)SC1=S`, which EC50 [2] is on record?
**A.** Its EC50 is > 120 µM (not active).

**Q.** What about the EC50 [3] of the same compound?
**A.** The EC50 was > 120 µM (not active).

**Q.** And the EC50 [4]?
**A.** Its EC50 is > 120 µM (not active).

**Q.** For `O=C1c2ccc3c4c(ccc(c24)C(=O)N1c1cccc(O)c1)C(=O)N(c1cccc(O)c1)C3=O`, which EC50 [2] is on record?
**A.** Its EC50 is 15.1 µM (active).

**Q.** And the EC50 [3]?
**A.** The EC50 was 17.1 µM (active).

**Q.** What about the CC50 (Vero) of the same compound?
**A.** Its CC50 is > 25 µM (active).

**Q.** And the AC50 (INS1)?
**A.** Its AC50 is 0.848 µM (active).

**Q.** What about the EC50 [9] of the same compound?
**A.** Its EC50 is 1.22 µM (active).

**Q.** What about the EC50 (Streptococcus) of the same compound?
**A.** The EC50 was 1.29 µM (active).

**Q.** What about the EC50 (Streptokinase A) of the same compound?
**A.** Its EC50 is > 150 µM (not active).

**Q.** What about the EC50 [4] of the same compound?
**A.** The EC50 was 85.7 µM (active).

**Q.** Which results are given for `CC(C)N1CCc2c(sc(NC(=O)c3ccc4ccccc4c3)c2C(N)=O)C1`?
**A.** CC50 (Vero): > 25 µM (active); EC50 [10]: > 300 µM (not active); EC50 [11]: > 300 µM (inconclusive)

**Q.** Which CC50 [8] does the source give for `CCCSc1nn2c(=O)c3ccccc3nc2s1` here?
**A.** Its CC50 is > 40 µM (active).

**Q.** With `CCCCN(CCCC)c1nc(-c2ccncc2)nc2ccccc12` as the compound, how does the CC50 [8] read?
**A.** Its CC50 is 29.3 µM (active).

**Q.** What about the EC50 [9] of the same compound?
**A.** The EC50 was 5.38 µM (active).

**Q.** What about the EC50 (Streptococcus) of the same compound?
**A.** The EC50 was 8.44 µM (active).

Reference: ChEMBL document CHEMBL1201862, “PubChem BioAssay data set” (2004)
